Reference: ChEMBL document CHEMBL1201862, “PubChem BioAssay data set” (2004)
Active and inactive are the calls of the source. Rule as the data show it, for most assays here: actives have a measured EC50 and inactives only a lower limit.

How the values were obtained:
[1] = NIH-3T3 fibroblast cytotoxicity, dose response, cytotoxicity control, cell-based, fluorescence, Alamar Blue, secondary assay (AID 2327); type: functional;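 also: NIH-3T3 mouse fibroblasts cultured with fluconazole at 8 µg/mL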
[2] = fluconazole-exposed Candida albicans growth modulators – fluorescence, retest, confirmation (AID 2467); type: functional, cell-based
[3] = target: T1, Serine/threonine-protein phosphatase (Candida dubliniensis (strain CD36 / CBS 7987 / NCPF 3949 / NRRLY-17841) (Yeast), UniProt B9W6M3); experiment: blockers of CaCl2-induced CDRE-lacZ signaling – S. cerevisiae, luminescence, secondary, dose response (AID 2388); type: functional, cell-based;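 also: yeast reporter cells carrying a calcineurin-responsive lacZ construct stimulated with calcium chloride; luminescent beta-galactosidase reporter signal in whole cells rather than isolated phosphatase activity; potency for inhibition where a drop in reporter signal means calcineurin blockade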
T1 sequence (B9W6M3 whole entry): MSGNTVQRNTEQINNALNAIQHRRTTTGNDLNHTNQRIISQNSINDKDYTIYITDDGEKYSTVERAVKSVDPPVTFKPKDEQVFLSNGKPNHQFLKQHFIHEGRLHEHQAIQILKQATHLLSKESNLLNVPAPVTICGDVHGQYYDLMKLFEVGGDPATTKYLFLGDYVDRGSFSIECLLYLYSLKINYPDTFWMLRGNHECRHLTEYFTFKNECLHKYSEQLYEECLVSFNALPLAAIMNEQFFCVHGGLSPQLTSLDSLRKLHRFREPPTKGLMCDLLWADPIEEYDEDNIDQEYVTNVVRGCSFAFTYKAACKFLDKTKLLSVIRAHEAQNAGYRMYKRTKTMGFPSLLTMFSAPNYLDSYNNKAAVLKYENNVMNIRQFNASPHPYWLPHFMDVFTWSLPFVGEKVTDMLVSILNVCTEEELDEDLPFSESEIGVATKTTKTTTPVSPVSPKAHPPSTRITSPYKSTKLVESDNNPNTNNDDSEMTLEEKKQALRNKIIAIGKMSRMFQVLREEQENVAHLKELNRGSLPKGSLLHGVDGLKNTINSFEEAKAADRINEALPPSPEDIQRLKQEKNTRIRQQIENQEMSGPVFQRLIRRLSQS

[4] = Luminescence Cell-Based Dose Retest to Confirm Inhibitors of Cancer Stem Cells. [Related pubchem assays (depositor defined):AID2717, AID2721]; type: functional; details: Homo sapiens
[5] = target: ATP-dependent molecular chaperone HSP82 (Candida albicans (strain WO-1) (Yeast), UniProt C4YTQ8); experiment: steroid-induced GRE reporter decrease in yeast – S. cerevisiae, luminescence, Hsp90 inhibitor project, dose response (AID 2400); type: functional, cell-based;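 also: beta-galactosidase luminescence from glucocorticoid response element reporter as proxy for Hsp90 function; inhibitor potency where signal loss means Hsp90 inhibition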
Chain of ATP-dependent molecular chaperone HSP82 (C4YTQ8 whole entry): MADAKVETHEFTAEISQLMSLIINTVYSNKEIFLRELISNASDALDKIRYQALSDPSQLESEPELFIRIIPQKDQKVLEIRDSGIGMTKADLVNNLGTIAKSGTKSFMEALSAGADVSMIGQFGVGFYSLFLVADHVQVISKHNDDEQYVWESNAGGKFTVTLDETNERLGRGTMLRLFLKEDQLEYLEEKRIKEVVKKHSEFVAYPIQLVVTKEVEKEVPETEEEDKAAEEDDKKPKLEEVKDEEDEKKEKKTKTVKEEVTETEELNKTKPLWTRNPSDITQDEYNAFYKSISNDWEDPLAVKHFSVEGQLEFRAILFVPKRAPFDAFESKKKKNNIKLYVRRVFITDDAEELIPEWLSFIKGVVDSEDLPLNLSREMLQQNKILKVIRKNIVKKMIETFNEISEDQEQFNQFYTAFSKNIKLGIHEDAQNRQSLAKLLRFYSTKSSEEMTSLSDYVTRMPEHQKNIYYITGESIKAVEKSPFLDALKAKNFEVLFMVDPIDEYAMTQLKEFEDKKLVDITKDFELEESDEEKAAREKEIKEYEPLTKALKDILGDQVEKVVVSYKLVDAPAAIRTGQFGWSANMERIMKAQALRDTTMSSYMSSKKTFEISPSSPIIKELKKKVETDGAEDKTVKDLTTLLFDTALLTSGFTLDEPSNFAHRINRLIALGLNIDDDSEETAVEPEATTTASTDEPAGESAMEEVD

[6] = target: T2, Tyrosine-protein phosphatase non-receptor type 11 (Homo sapiens, UniProt Q06124); experiment: PTPN11 enzyme inhibitors – biochemical, selectivity assay for STEP inhibitor project, dose response (AID 602367); type: functional; details: read-out: IC50_Mean
T2 sequence (Q06124 whole entry): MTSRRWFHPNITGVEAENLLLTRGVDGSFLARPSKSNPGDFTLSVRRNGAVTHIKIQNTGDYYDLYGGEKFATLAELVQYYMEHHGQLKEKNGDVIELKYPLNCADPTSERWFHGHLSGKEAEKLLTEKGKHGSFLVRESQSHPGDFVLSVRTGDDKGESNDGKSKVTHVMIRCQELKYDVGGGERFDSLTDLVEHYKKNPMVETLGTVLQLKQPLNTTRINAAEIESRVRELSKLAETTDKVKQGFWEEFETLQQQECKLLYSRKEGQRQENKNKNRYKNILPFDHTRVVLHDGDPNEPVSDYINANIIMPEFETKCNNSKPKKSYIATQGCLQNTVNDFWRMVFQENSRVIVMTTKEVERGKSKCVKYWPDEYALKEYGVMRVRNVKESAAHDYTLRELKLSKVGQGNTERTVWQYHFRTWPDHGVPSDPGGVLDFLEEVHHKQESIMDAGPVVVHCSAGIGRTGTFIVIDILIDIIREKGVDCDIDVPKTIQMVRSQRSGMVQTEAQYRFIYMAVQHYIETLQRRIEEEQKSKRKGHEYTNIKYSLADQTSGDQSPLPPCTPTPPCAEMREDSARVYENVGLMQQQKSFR

[7] = target: T3, Tyrosine-protein phosphatase non-receptor type 5 (Homo sapiens, UniProt P54829); experiment: PTPN5 enzyme inhibition – biochemical, fluorescence intensity, uHTS hits, confirmation (AID 602372); type: functional; details: read-out: IC50_Mean
T3 sequence (P54829 whole entry): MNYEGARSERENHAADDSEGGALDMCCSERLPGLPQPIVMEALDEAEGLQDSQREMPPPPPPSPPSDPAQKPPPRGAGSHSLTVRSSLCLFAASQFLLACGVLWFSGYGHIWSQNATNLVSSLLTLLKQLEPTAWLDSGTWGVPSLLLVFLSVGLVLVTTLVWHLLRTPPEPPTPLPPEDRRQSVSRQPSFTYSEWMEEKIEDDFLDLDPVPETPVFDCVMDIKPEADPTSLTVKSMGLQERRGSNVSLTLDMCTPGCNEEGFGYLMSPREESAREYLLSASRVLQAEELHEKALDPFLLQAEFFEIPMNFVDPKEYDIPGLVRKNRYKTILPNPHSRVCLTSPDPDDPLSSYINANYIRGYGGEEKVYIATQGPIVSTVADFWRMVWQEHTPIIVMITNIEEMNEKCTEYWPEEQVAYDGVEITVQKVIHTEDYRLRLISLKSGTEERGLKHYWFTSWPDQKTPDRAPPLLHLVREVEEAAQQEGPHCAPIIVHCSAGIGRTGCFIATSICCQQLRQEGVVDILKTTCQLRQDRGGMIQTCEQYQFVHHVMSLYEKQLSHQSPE

[8] = target: Dual specificity protein phosphatase 3 (Homo sapiens, UniProt P51452); experiment: VHR phosphatase inhibition, dose response, selectivity assay for STEP inhibitor project, biochemical (AID 602374); type: functional; details: read-out: IC50_Mean
Chain of Dual specificity protein phosphatase 3 (P51452 whole entry): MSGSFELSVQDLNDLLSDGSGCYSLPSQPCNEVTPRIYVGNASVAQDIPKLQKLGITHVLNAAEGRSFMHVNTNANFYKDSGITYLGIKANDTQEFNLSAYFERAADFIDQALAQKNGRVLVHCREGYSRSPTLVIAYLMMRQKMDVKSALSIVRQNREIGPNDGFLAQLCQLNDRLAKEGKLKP

[9] = cells; type: functional, cell-based
[10] = Trypanosoma cruzi growth suppression in host cells – NIH3T3 host cells, beta-gal luminescence, confirmation (AID 2044); type: functional, cell-based;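 also: intracellular parasites grown in NIH/3T3 mouse fibroblasts as host cells; luminescent beta-galactosidase reporter signal from transgenic T. cruzi replicating inside host cells; inhibitors lower the luminescence signal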
[11] = cells; type: functional, cell-based; remark: listed apart in the source
[12] = NIH3T3 cell viability loss – ATP luminescence, mouse fibroblasts, counter-screen, dose response (AID 2010); type: functional, cell-based;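 also: cells exposed to compound for about 90 hours before reading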
[13] = tested on: INS1; experiment: INS-1E survival protection against cytokine death – cell-based, luminescence, retest, dose response (AID 449756); type: functional; details: Rattus norvegicus;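 also: cell death triggered by IL-1 beta plus TNF-alpha plus IFN-gamma mixture; protective hits raise ATP signal compared with cytokine alone wells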
[14] = target: T4, Ubiquitin-conjugating enzyme E2 N (Homo sapiens, UniProt P61088); type: functional;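 also: Dose-response confirmation in a TR-FRET assay detecting UBC13-driven polyubiquitin chain formation, inhibition measured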
T4 sequence (P61088 whole entry): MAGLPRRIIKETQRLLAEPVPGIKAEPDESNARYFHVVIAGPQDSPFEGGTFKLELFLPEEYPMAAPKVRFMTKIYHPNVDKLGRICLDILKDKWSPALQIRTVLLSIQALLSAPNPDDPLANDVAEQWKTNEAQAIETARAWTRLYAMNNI

[15] = target: T5, DNA repair protein RAD52 homolog (Homo sapiens, UniProt P43351); type: functional, biochemical
T5 sequence (P43351 whole entry): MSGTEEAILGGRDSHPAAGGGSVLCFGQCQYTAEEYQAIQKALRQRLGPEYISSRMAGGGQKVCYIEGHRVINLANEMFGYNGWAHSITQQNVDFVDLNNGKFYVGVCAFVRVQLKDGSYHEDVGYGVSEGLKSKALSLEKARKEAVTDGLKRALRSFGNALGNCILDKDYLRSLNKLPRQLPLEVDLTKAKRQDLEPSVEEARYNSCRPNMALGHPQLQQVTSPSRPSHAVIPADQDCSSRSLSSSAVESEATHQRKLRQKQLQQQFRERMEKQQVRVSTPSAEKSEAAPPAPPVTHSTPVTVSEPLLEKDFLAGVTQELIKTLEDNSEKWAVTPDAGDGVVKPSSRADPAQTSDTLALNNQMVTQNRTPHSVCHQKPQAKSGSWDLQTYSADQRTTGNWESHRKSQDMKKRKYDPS

[16] = tested on: BJ; experiment: BJ-TERT fibroblast viability loss – cell-based, RAS-independent, luminescence, dose response (AID 1933); type: functional; details: Homo sapiens
[17] = tested on: BJ; experiment: cells; type: functional, cell-based; details: Homo sapiens
[18] = microbe, parasite or virus in culture; type: functional; details: Mycobacterium tuberculosis
[19] = tested on: BJ; experiment: BJ-TERT-LT-ST fibroblast viability loss – cell-based, RAS-independent, luminescence, dose response (AID 1935); type: functional; details: Homo sapiens;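 also: BJ fibroblasts immortalized with TERT plus LT and ST oncogenes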
[20] = DRD fibroblast viability loss – cell-based, non-viral oncogenic, luminescence, dose response (AID 1934); type: functional; details: Homo sapiens
[21] = target: Heat shock protein HSP 90-alpha (Homo sapiens, UniProt P07900); type: functional, organism-based

SMILES: COc1ccc(C2=NN(c3nc4ccccc4s3)C(=O)C2)cc1
- EC50 [1]: > 160 µM (inconclusive)
- EC50 [2]: > 38 µM (not active)
- EC50 [3]: 3.92 µM (active)
- AC50 [4]: 2.21 µM (active)
- EC50 [5]: 1.4 µM (active)

SMILES: O=C1NN(c2cccc(Br)c2)C(=O)/C1=C\c1ccc(N2CCOCC2)cc1
- IC50 [6]: 4.48 µM (active)
- IC50 [7]: 21.3 µM (inactive)
- IC50 [8]: 2.55 µM (active)

SMILES: COc1cccc(/C=N/NC(=O)c2c(C)nc3ccc(Br)cn23)c1O
- EC50 [1]: > 160 µM (inactive)
- EC50 [9]: 7.35 µM (active)
- EC50 [2]: 0.483 µM (active)
- EC50 [10]: 3.06 µM (active)
- EC50 [11]: 126 µM (active)
- EC50 [3]: > 180 µM (inactive)
- EC50 [12]: > 60 µM (inconclusive)
- AC50 [13]: 0.842 µM (active)
- EC50 [5]: 23.8 µM (active)

SMILES: CN(C)CCOC(=O)c1ccc2[nH]c3c(c2c1)CSCC3
- IC50 [14]: > 20 µM (inactive)
- AC50 [15]: 0.792 µM (active)

SMILES: C(C#CCCCCCCCCC[n+]1ccccc1)#CCCCCCCCCC[n+]1ccccc1
- EC50 [1]: > 150 µM (inactive)
- EC50 [16]: 2.28 µM (inconclusive)
- EC50 [17]: > 150 µM (inconclusive)
- EC50 [2]: 0.05 µM (active)
- CC50 [18]: > 40 µM (active)
- EC50 [3]: > 180 µM (inactive)
- EC50 [19]: 6.02 µM (active)
- EC50 [20]: 5.68 µM (active)
- AC50 [21]: 3.58 µM (active)
- AC50 [13]: 1.67 µM (active)
- EC50 [5]: > 150 µM (inactive)

SMILES: NS(=O)(=O)c1ccc(NC(=S)N2CCC(Cc3ccccc3)CC2)cc1
- IC50 [6]: 3.13 µM (active)
- IC50 [7]: 38.8 µM (inactive)
- IC50 [8]: 1.03 µM (active)

SMILES: C=CCNC(S)=Nc1sc2c(c1C(=O)OCC)CC(C)(CC)OC2 (configuration not stated)
- EC50 [1]: > 150 µM (inconclusive)
- EC50 [2]: 0.889 µM (active)
- EC50 [3]: > 180 µM (inactive)
- EC50 [5]: 19.2 µM (active)
